Source: ChEMBL document CHEMBL1201862, “PubChem BioAssay data set” (2004)
Where a name gives a salt, the structure may show the parent alone. Calls of active or inactive are those of the source.

Assays:
Protein Tat = molecular target: T1, Protein Tat (Human immunodeficiency virus type 1 group M subtype B (isolate HXB2)(HIV-1), UniProt P04608); format: functional;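 also: tat binding to TAR RNA read out by fluorescence polarization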
T1 sequence (P04608 whole entry): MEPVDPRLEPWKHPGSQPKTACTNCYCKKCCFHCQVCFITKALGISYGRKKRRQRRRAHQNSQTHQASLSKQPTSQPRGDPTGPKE

[1] = Luminescence-based cell-based high throughput dose response assay to identify activators of the DAF-12 from the parasite S. stercoralis (ssDAF-12).; format: functional
[2] = molecular target: T2, Oxysterols receptor LXR-beta (Homo sapiens, UniProt P55055); assay: LXR agonists, Gal4 luciferase reporter, dose response, counter-screen for ssDAF-12 agonist project, cell-based, luminescence, HEK293, S. stercoralis campaign (AID 720737); format: functional; conditions: read-out: IC50 (the source's name)
T2 sequence (P55055 whole entry): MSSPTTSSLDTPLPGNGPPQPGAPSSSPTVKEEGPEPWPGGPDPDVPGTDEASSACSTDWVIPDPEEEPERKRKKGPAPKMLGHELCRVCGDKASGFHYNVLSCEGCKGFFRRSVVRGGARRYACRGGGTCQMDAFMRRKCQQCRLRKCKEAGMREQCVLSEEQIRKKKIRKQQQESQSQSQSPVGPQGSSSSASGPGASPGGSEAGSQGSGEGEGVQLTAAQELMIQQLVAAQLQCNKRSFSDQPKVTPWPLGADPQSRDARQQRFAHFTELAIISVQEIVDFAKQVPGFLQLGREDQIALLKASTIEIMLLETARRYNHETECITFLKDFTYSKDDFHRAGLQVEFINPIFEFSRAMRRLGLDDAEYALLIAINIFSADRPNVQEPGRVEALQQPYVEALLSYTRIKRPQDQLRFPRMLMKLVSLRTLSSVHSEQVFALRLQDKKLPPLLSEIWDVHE

[3] = half-maximal inhibitory concentration for glucagon-like peptide-1 release, STC-1 cell line, dose-response (AID 1117345); format: functional, cell-based
[4] = Glucagon-like peptide 1 release potency, NCI-H716 cell line, dose-response, half-maximal inhibitory concentration (AID 1117344); format: functional, cell-based
[5] = inhibitors of firefly luciferase expression or activity, dose response, H4 neuroglioma cells, luminescence (AID 1990); format: functional, cell-based
[6] = Luminescence Cell-Based Dose Response HTS to Identify Inhibitors of 5'UTR Stem-Loop Driven Prion Protein mRNA Translation in H4 Neuroglioblastoma Cells. [Related pubchem assays: 1827 (Project Summary), 1813 (Primary HTS)]; format: functional
[7] = inhibitors of SNCA 5'UTR-driven reporter translation, confirmation, H4 neuroglioma cells, luminescence (AID 1988); format: functional, cell-based
[8] = microbe, parasite or virus in culture; format: functional; conditions: Mycobacterium tuberculosis
[9] = growth suppression of PTEN-null colon cells, dose response, cell-based, HCT116 PTEN knockout (AID 1047); format: functional;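 also: HCT116 colon tumor cells with PTEN knocked out; cells exposed to compound for 60 hours before readout; potency for loss of cell viability measured by luminescence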
[10] = growth suppression of beta-catenin-knockout colon cells, dose response, cell-based, HCT116, human colon tumor (AID 1045); format: functional;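 also: HCT116 colon tumor cells with beta catenin knocked out; cells exposed to compound for 60 hours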
[11] = molecular target: T3, Ubiquitin-conjugating enzyme E2 N (Homo sapiens, UniProt P61088); format: functional;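 also: Dose-response confirmation in a TR-FRET assay detecting UBC13-driven polyubiquitin chain formation, inhibition measured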
T3 sequence (P61088 whole entry): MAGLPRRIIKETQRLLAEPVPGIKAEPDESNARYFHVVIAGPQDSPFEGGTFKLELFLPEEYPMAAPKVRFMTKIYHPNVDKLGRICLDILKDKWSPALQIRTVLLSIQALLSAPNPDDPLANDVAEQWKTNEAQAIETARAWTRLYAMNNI

INS1 = assay: beta cell apoptosis inhibitors, cytokine rescue, dose response, luminescence, retest (AID 449756); format: functional, cell-based; conditions: Rattus norvegicus;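 also: cell death triggered by IL-1 beta plus TNF-alpha plus IFN-gamma mixture; protective hits raise ATP signal compared with cytokine alone wells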
[12] = Shn3 3'UTR reporter inhibitors, dose response, cell-based, Clone20 osteoblasts, firefly luciferase, cherry-picked (AID 624132); format: functional;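 also: firefly luciferase luminescence from reporter carrying the Shn3 3'UTR in osteoblasts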
[13] = HepG2 cell cytotoxicity, dose response, cytotoxicity control for Shn3 inhibitor project, CellTiter-Glo, cherry-picked (AID 624134); format: functional, cell-based
[14] = control 3'UTR Renilla luciferase suppression, dose response, counter-screen for Shn3 inhibitor project, cell-based, Clone20-Shn3RL, cherry-picked (AID 624133); format: functional
[15] = molecular target: Heat shock protein HSP 90-alpha (Homo sapiens, UniProt P07900); format: functional, organism-based
[16] = molecular target: T4, Aryl hydrocarbon receptor (Homo sapiens, UniProt P35869); conditions: Potency;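 also: confirmatory quantitative high-throughput screen measuring activation of the AhR signaling pathway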
T4 sequence (P35869 whole entry): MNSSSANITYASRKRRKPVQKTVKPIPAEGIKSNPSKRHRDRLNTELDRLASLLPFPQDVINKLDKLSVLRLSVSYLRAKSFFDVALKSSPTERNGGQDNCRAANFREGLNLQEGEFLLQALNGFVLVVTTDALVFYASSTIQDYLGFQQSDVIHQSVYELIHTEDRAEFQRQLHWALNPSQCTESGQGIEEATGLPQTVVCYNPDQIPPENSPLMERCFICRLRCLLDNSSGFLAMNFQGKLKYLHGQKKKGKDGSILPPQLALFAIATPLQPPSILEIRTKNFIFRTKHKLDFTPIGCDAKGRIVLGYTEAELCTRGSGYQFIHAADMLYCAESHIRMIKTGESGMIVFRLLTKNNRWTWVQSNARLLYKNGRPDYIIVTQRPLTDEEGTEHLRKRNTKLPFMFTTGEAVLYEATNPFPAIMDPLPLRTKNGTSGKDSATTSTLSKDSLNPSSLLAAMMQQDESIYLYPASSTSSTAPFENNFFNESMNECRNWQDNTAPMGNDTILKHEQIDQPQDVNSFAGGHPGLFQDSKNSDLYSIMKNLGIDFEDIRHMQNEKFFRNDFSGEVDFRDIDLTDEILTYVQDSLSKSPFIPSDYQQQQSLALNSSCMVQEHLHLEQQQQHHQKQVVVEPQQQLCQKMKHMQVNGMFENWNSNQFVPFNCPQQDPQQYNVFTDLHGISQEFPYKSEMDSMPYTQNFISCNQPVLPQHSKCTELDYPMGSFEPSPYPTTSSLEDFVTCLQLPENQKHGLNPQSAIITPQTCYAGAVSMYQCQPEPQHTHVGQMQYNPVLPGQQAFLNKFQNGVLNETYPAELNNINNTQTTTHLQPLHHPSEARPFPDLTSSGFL

Escherichia coli [17] = assay: microbe, parasite or virus in culture
Escherichia coli [18] = assay: microbe, parasite or virus in culture; remark: listed apart in the source

## CC1(C)Cc2nc3sc4c(SCC(=O)NCc5ccco5)ncnc4c3cc2CO1
Protein Tat
  IC50: > 100 µM (active)

## Cc1nn(Cc2ccccc2)c(Cl)c1/C=N/NC(=O)c1cccnc1
[1]
  IC50: > 67.5 µM (inactive)
[2]
  EC50: > 67.5 µM (inactive)

## C[C@@H](NCCCc1cccc(C(F)(F)F)c1)c1cccc2ccccc12 [CINACALCET HYDROCHLORIDE]
[3]
  IC50: > 40 µM (inactive)
[4]
  IC50: 17.2 µM (inactive)

## CC(C)(C)c1ccc(C(O)CCCN2CCC(C(O)(c3ccccc3)c3ccccc3)CC2)cc1 (centres undefined) [TERFENADINE]
[5]
  EC50: > 120 µM (not active)
[6]
  EC50: 6.46 µM (active)
[7]
  EC50: 4.26 µM (active)
[8]
  CC50: 9.24 µM (active)
[9]
  EC50: 4.43 µM (active)
[10]
  EC50: 4.55 µM (active)
[11]
  IC50: > 20 µM (inactive)
INS1
  AC50: 8.13 µM (active)
[12]
  AC50: 16.7 µM (active)
[13]
  AC50: 11.4 µM (active)
[14]
  AC50: 12.9 µM (active)
[3]
  IC50: > 40 µM (inactive)
[4]
  IC50: 20.5 µM (inactive)

## Oc1cc(Cl)ccc1Oc1ccc(Cl)cc1Cl [TRICLOSAN]
[15]
  AC50: 7.85 µM (active)
[3]
  IC50: 2.55 µM (active)
[4]
  IC50: 21.3 µM (inactive)
[16]
  AC50: 70.8 µM (inconclusive)
Escherichia coli [17]
  AC50: 329 nM (active)
Escherichia coli [18]
  AC50: 1.06 µM (active)
